From ChEMBL document CHEMBL3244392, “Synthesis and antiinflammatory activity of some 2-aryl-6-benzoxazoleacetic acid derivatives” (J Med Chem, 1977)

What was measured:
Rattus norvegicus [1] = test: Antiinflammatory activity in rat assessed as inhibition of carrageenan-induced paw edema at 50 mg/kg, po administered as two doses 3 and 0.5 hr prior to challenge measured 2.5 hrs post challenge; assay type: functional
[2] = Toxicity in po dosed rat; assay type: organism-based; details: in vivo
Rattus norvegicus [3] = test: Antiinflammatory activity in adrenalectomized rat assessed as inhibition of carrageenan-induced paw edema at 25 mg/kg, po administered as two doses 3 and 0.5 hr prior to challenge measured 2.5 hrs post challenge; assay type: functional
Rattus norvegicus [4] = test: Antiinflammatory activity in rat assessed as inhibition of carrageenan-induced paw edema at 25 mg/kg, po administered as two doses 3 and 0.5 hr prior to challenge measured 2.5 hrs post challenge; assay type: functional
Rattus norvegicus [5] = test: Antiinflammatory activity in rat assessed as inhibition of carrageenan-induced paw edema at 100 mg/kg, po administered as two doses 3 and 0.5 hr prior to challenge measured 2.5 hrs post challenge; assay type: functional
Rattus norvegicus [6] = test: Antiinflammatory activity in adrenalectomized rat assessed as inhibition of carrageenan-induced paw edema at 100 mg/kg, po administered as two doses 3 and 0.5 hr prior to challenge measured 2.5 hrs post challenge; assay type: functional
Rattus norvegicus [7] = test: Antiinflammatory activity in adrenalectomized rat assessed as inhibition of carrageenan-induced paw edema administered orally 1 hr prior to challenge measured 2.5 hrs post challenge; assay type: functional; details: po
Rattus norvegicus [8] = test: Antiinflammatory activity in adrenalectomized rat assessed as inhibition of carrageenan-induced paw edema administered orally 1 hr prior to challenge measured 5 hrs post challenge; assay type: functional; details: po
Rattus norvegicus [9] = test: Antiinflammatory activity in adrenalectomized rat assessed as inhibition of carrageenan-induced paw edema at 50 mg/kg, po administered as two doses 3 and 0.5 hr prior to challenge measured 2.5 hrs post challenge; assay type: functional

SMILES | inhibition in vivo at 50 mg/kg (Rattus norvegicus [1]) | LD50 [2] | further results
CC(C(=O)O)c1ccc2nc(-c3ccccc3)oc2c1 (stereo not drawn) | 60% | 600 mg/kg | –
CC(C(=O)O)c1ccc2nc(-c3ccc(Cl)cc3Cl)oc2c1 (stereo not drawn) | – | 300 mg/kg | inhibition in vivo at 25 mg/kg (Rattus norvegicus [3]): 56%; inhibition in vivo at 25 mg/kg (Rattus norvegicus [4]): 49%
Cl.NCCc1ccc2nc(-c3ccccc3)oc2c1 | – | 300 mg/kg | inhibition in vivo at 25 mg/kg (Rattus norvegicus [3]): 0%; inhibition in vivo at 25 mg/kg (Rattus norvegicus [4]): 59%
OCCc1ccc2nc(-c3ccccc3)oc2c1 | – | > 1600 mg/kg | inhibition in vivo at 100 mg/kg (Rattus norvegicus [5]): 47%
O=C(O)Cc1ccc2nc(-c3ccccc3)oc2c1 | – | 1200 mg/kg | inhibition in vivo at 100 mg/kg (Rattus norvegicus [5]): 60%; inhibition in vivo at 100 mg/kg (Rattus norvegicus [6]): 50%
CC(C(=O)O)c1ccc2nc(-c3ccccc3Cl)oc2c1 (stereo not drawn) | 41% | 1200 mg/kg | ED30 (Rattus norvegicus [7]): 1.98 mg/kg; ED30 (Rattus norvegicus [8]): 23 mg/kg; inhibition in vivo at 50 mg/kg (Rattus norvegicus [9]): 58%
Cc1ccc(-c2nc3ccc(C(C)C(=O)O)cc3o2)cc1 (stereo not drawn) | 43% | 1200 mg/kg | –
C[C@]12CCC(=O)C=C1CC[C@@H]1[C@@H]2[C@@H](O)C[C@@]2(C)[C@H]1CC[C@]2(O)C(=O)CO [HYDROCORTISONE] | 42% | – | –
CC(C(=O)O)c1ccc2nc(-c3ccc(Cl)cc3)oc2c1 (stereo not drawn) | 28% | 1200 mg/kg | ED30 (Rattus norvegicus [7]): 2.4 mg/kg; ED30 (Rattus norvegicus [8]): 11 mg/kg
CC(C(=O)O)c1ccc2oc(-c3ccc(Cl)cc3)nc2c1 (stereo not drawn) [BENOXAPROFEN] | 78% | 800 mg/kg | ED30 (Rattus norvegicus [7]): 13.4 mg/kg; ED30 (Rattus norvegicus [8]): 10.6 mg/kg
CC(CN)c1ccc2nc(-c3ccccc3)oc2c1.O=C(O)CCC(=O)O (stereo not drawn) | – | 300 mg/kg | inhibition in vivo at 25 mg/kg (Rattus norvegicus [4]): 0%
Cc1ccc2nc(-c3ccccc3)oc2c1 | 10% | < 1600 mg/kg | –
CCOC(=O)Cc1ccc2nc(-c3ccccc3)oc2c1 | – | 1200 mg/kg | inhibition in vivo at 100 mg/kg (Rattus norvegicus [5]): 61%
CCCCC1C(=O)N(c2ccccc2)N(c2ccccc2)C1=O [PHENYLBUTAZONE] | 39% | – | ED30 (Rattus norvegicus [7]): 23.8 mg/kg; inhibition in vivo at 100 mg/kg (Rattus norvegicus [6]): 60%; ED30 (Rattus norvegicus [8]): 52.6 mg/kg
CC(C(=O)O)c1ccc2nc(-c3ccc(F)cc3)oc2c1 (stereo not drawn) | 48% | 1200 mg/kg | –
CC(CO)c1ccc2nc(-c3ccccc3)oc2c1 (stereo not drawn) | – | 800 mg/kg | inhibition in vivo at 100 mg/kg (Rattus norvegicus [5]): 61%
